Source: BindingDB's records for doi:10.1021/jm800792b (Industrial Research, 2008)

What was measured:
[1] = target: T1, Purine nucleoside phosphorylase (Homo sapiens, UniProt P00491); experiment: Inhibition of human purine nucleoside phosphorylase by xanthine-oxidase coupled assay
T1 sequence (P00491 whole entry): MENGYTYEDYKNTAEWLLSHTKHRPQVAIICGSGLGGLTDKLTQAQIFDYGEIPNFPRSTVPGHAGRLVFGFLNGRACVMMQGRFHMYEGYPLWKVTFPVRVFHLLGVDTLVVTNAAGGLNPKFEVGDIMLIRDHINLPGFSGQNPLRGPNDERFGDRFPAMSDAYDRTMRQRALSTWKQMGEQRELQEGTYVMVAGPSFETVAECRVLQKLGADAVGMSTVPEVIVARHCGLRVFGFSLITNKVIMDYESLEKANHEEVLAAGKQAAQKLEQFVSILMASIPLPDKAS

[2] = target: T1, Purine nucleoside phosphorylase; experiment: Inhibition of human purine nucleoside phosphorylase assessed as slow onset inhibition constant by xanthine-oxidase coupled assay

Ki [1]: 0.066 nM
Ki [2]: 0.5 nM
Compound: O=c1[nH]cnc2c(CN3C[C@H](O)[C@@](F)(CO)C3)c[nH]c12 [Immucillins, 1]
